The test system of test [1] is sulfate reducing bacteria (SRB). Nature of the test: Sterilization performance test (serial dilution counting of SRB). The test is classed as cell-based. The following applies: 60 mg/L, counted 24 hours later; for Number of SRB: no bactericide 2500000. As for the experimental part: Before the test, all devices and glass containers were sterilized for 20 min at 121° C. The SRB strain was isolated from the formation water of an injection well in a shale gas field in China. SRB liquid medium was prepared according to NACE TMO194-94 standard.
The composition of the medium is as follows: Ig yeast powder, 0.1 g ascorbic acid, 0.2 g MgSO4·7H2O, 0.01 g K2HPO4, 10 g NaCl, 0.2 g (NH4)2Fe(SO4)2·6H2O, 4 mL sodium lactate, and 1000 mL deionized water. A portable pressure steam disinfection pot was used to sterilize the bacteria in the prepared medium. In the sterilization process, the temperature was kept at 120° C. for 15 min. It was then deoxidized with N2 for 2 h. 10% SRB was inoculated into the medium and placed in an incubator at 37° C. After 5 days, the number of SRB reached the peak value and remained stable.
Different bactericides were added into the cultured bacteria solution of 200 mL and counted 24 hours later.
Serial dilution method (triple repetition) was taken for the counting of SRB. Totally 10 dilution levels were provided. At each dilution level, there were three identical vials filled with 9 mL SRB medium. The measured sample of 1 mL was injected into a vial at the Level 0 and then shaken up. The 1 mL solution from the vial at the Level 0 was injected into a vial at the Level 1. The syringe for sampling the liquid each time was disposable to avoid affecting the final results. Similarly, the sample was diluted until the dilution reached Level 9. All vials were incubated at 35° C. for 14 days at a constant temperature.
The growth index should be determined according to the following principles: three dilution levels were selected from the dilution level at which negative vials appeared, and the number of positive vials was counted for each dilution level to obtain the index (When all the vials in a certain grade are negative, the previous grade is counted). The growth index (summarized according to 5.6.5.3 in SY/T 5329-1994) is obtained by multiplying the dilution factor 10^n of water sample (n is the number of dilutions before the index position). Check the corresponding bacteria count table and substitute the bacterial count detected by the index to get the content of this kind of bacteria in the water sample (Nr./mL).
The test results are shown in Table 1, in which the vials 1 to 10 are filled with 9 mL SRB medium (10^7). The dilution levels are numbered from Lev. 0 to Lev. 9. Take the measured sample of 1 mL into the Vial 1, indicating Level 0; take a new syringe and take 1 mL from Vial 1 to Vial 2, indicating Level 1; take a new syringe and take 1 mL from Vial 2 to Vial 3, indicating […]; the rest can be done in the same manner until 1 mL is taken from Vial 9 to Vial 10, indicating Level 9. “+” represents positive vial, and “−” represents negative vial.

Test [2] can be described thus: Corrosion inhibition performance test (static uniform corrosion, SY/T 5273-2014). To be noted: 60 mg/L; N80 steel, corrosive solution pH 6.5, 37° C., 14 days. As for the experimental part:
The corrosive solution of 1 L was prepared, the pH was adjusted to 6.5, and the temperature was 37° C. at a normal pressure. The N80 steel specimens were processed with specifications of 30*15*3 and placed in corrosive solution. Three specimens were placed in each vial and different corrosion inhibitors were added respectively. The experiment lasted for 14 days.
After the test, the specimens were cleaned with stripping solution (100 ml hydrochloric acid+10 g hexamethylenetetramine+900 mL deionized water), then dehydrated by ethanol and blow-dried with N2. The determination method for static uniform corrosion inhibition rate was evaluated with referring to the Performance Index and Evaluation Method of Corrosion Inhibitor for Oilfield Produced Water Treatment (SY/T 5273-2014), the oil and gas industry standard of the People's Republic of China. The formulas of uniform corrosion rate and corrosion inhibition efficiency are as follows:
The corrosion inhibition test results are shown in Table 3, in which the corrosion inhibitors 1, 2 and 3 commonly used in oilfields are respectively the lauric acid imidazoline, abietic acid imidazoline and tetradecyl trimethyl ammonium bromide.

Regarding `O=CCCCC=O` [Glutaraldehyde], in test [1], the Growth index turned out to be 200, the Sterilization rate is on record as 64% and the “Number of SRB” value came out at 900000 Nr./mL.

Take `CCCCCCCCCCCCCC[N+](C)(C)C.[Br-]` [Tetradecyl trimethyl ammonium bromide, tetradecyl trimethyl ammonium bromide]: the Corrosion inhibition efficiency in test [2] is on record as 90.9%.

With `CCCCCCCCCCCC[N+](C)(C)Cc1ccccc1.[Cl-]` [Traditional bactericide 1227], in test [1], the Growth index was 210, the Sterilization rate is 40% and the “Number of SRB” value came out at 1500000 Nr./mL.

The compound abietic acid imidazoline returned a Corrosion inhibition efficiency in test [2] of 93.9%.

Consider lauric acid imidazoline, for which, in test [2], the Corrosion inhibition efficiency came to 93.3%.
